Reference: US9359281B2, “Enantiomers of 2-hydroxy derivatives of fatty acids” (UNIVERSITAT DE LES ILLES BALEARS, priority 2011, dated 2016)

Experiments:
A172 cells [1] = test: Levels of SM in cell membranes, A172; format: cell-based, human; conditions: A172, 200 μM [−]2OHOA
Protocol: (§1) The levels of SM, cultivated in the absence (control) or presence of 200 μM of [−]2OHOA, in normal cell membranes (MRC-5 and IMR90) were measured, and also in several types of tumoral cells (see Table 2). In all cases, we detected that the membranes of tumoral cells have SM levels of about half or a third of that in normal cells (FIG. 1). We can therefore assert that SM concentration is a biomarker which indicates tumorgenesis in human cells. On the other hand, treatments with the molecules of the present invention induce an increase of SM in the tumour cells which is not naturally occurring. […] For example, the spectrophotometry determination of solution fluorescence of the SM levels is a very simple, quick and efficient analysis method (FIG. 1D). Thus, this invention has generated a method for diagnosis for detecting the described pathological processes and pathologies in which there are SM level changes, and also for monitoring the efficiency of the therapy using molecules of the present invention and others of similar activity. Based on this knowledge, this invention also includes kits for diagnosing these diseases.

MDA-MB-231 cells = test: Levels of SM in cell membranes, MDA-MB-231; format: cell-based, human; conditions: MDA-MB-231, 200 μM [−]2OHOA
Protocol: as §1

A172 cells [2] = test: Cell growth inhibition, A172; format: cell-based, human; design: key: +: inhibition of cell growth; −: absence of effect
SF268 cells [3] = test: Cell growth inhibition, SF268; format: cell-based, human; design: key: +: inhibition of cell growth; −: absence of effect
HT29 cells = test: Levels of SM in cell membranes, HT29; format: cell-based, human; conditions: HT29, 200 μM [−]2OHOA
Protocol: as §1

SF268 cells [4] = test: Levels of SM in cell membranes, SF268; format: cell-based, human; conditions: SF268, 200 μM [−]2OHOA
Protocol: as §1

enzyme EC 2.3.1.50 = test: [3H]palmitate incorporation in lipid fractions of U118 cells; format: cell-based, human; design: dose or concentration left out as unconfirmed; conditions: U118, 24 h
Protocol: FIG. 9. Regulation of the activity of enzyme 2.3.1.50.
We incubated human glioma cells U118 in the presence or absence (control) of 2OHOA ([…], 24 h) and later incubated them with [^3H]palmitate for 5 minutes. After these periods of incubation, we extracted the cellular lipids and separated them by TLC. The bands correspond to each species of lipid extracted and the amount of radioactive palmitate incorporated was measured by liquid shining. As we can see, not only was there an important incorporation of the fraction of the SM (an indicator of the activity of enzyme EC 2.7.8.27), but also in the fraction of the ceramide, which indicates activity of enzyme EC 2.3.1.50 (serin-palmitoil transferase).

Ras protein = test: Ras translocation from membrane to cytoplasm by confocal microscopy; format: cell-based; conditions: human glioma, lung cancer and leukaemia cells
Protocol: The high levels of 2OHOA and SM in the membrane impede the anchoring of the Ras protein on the membrane.
2OHOA increases levels of SM in tumoral cells treated as explained above. […] SM is lipid in the membrane which impedes the bonding of certain molecules involved in the proliferation of cells, such as the Ras protein. In this way, levels of Ras were measured by confocal microscopy, using an antibody marked fluorescently, and we were able to detect that the marker passed from the membrane (FIG. 6: 95-99% of total detected fluorescence in the membrane before treatment) to the cytoplasm (94-97% of fluorescence detected in the inside of the cell after treatment with 2OHOA) in human glioma, lung cancer and leukaemia cells. The translocation of Ras from the membrane to the cytoplasm means an absence of productive interaction between Ras and Receptor-Tirosine-Kinase (RTK) or between Ras and Raf, so the proteins in MAP kinase chain are not activated and the tumoral cells cease to proliferate and programmed cell death starts. Changes in cell physiology induced by the molecules of present invention, have as intermediate effects (prior to the cancer cells death or the regulation of the activity in other cells), the induction of dramatic reductions in DHFR levels and dramatic increases of GFAP levels (FIG. 6).

enzyme EC 2.7.8.27 = test: Activity of enzyme EC 2.7.8.27 in U118 cells (NBD-Cer to NBD-SM); format: cell-based, human; conditions: U118, 200 μM, 5 minutes to 24 hours
Protocol: FIG. 4. Compound 2OHOA acts directly on enzyme EC 2.7.8.27. In A, B, C, in all cases, we incubated cells or cellular extracts or means of incubation with the fluorescent stratum of this enzyme NBD-Cer (nitro-benzoxadiazol-il) ceramide], in the presence or absence (control, white bars) of 2OHOA (black bars). Then, we extracted the lipids and determined the levels of formation of NBD-SM per HPTLC (HP-TLC, high performance thin layer chromatography). The values are presented on the ordinate axis as the average±ESM (n=3-5).
A. In vivo experiment of the activity of enzyme EC 2.7.8.27: we incubated U118 cells with NBD-Cer for 4 hours and then treated them with compound 2OHOA (200 μM) for different periods of time (5, 15, 60 minutes y 24 hours). Later, the cells homogenised and we measured the metabolisation of fluorofor NBD-Cer to become NBD-SM.
The speed of the phenomenon clearly indicates direct and effective interaction between enantiomer 2OHOA and enzyme EC 2.7.8.27. So, this invention refers to the use of the aforementioned compounds as activators (enantiomer [−]), or inhibitors (enantiomer [+]) specific to enzyme EC 2.7.8.27.

Row | SMILES | % SM after treatment (A172 cells [1]) [%] | % SM after treatment (MDA-MB-231 cells) [%] | Effect (anti-proliferation effect) (A172 cells [2]) | Effect (anti-proliferation effect) (SF268 cells [3]) | % SM after treatment (HT29 cells) [%] | % SM after treatment (SF268 cells [4]) [%] | activity of enzyme EC 2.3.1.50 ([3H]palmitate in ceramide fraction) (enzyme EC 2.3.1.50) | Ras fluorescence detected in the inside of the cell after treatment (Ras protein) | activation of enzyme EC 2.7.8.27 in cell cultures (enzyme EC 2.7.8.27)
1 | CCCCCCCC/C=C\CCCCCCC(O)C(=O)O (stereo not drawn) [[−]2OHOA] [[−] HOOC—HOCH—(CH2)6—(CH═CH—CH2)1—(CH2)6—CH3] | 23 | 31 | + | + | 21 | 26 |  |  | 
2 | CCCCCCCC/C=C\CCCCCCC(O)C(=O)O (racemic) [2OHOA, 2-hydroxyoleic acid] |  |  |  |  |  |  | specific activator of enzyme EC 2.3.1.50 | 94-97% | enzymatic activation is visible from the first few minutes of incubation
